Measured values as given in ChEMBL document CHEMBL1649193, “Statins as potential antimalarial drugs: low relative potency and lack of synergy with conventional antimalarial drugs” (Antimicrob Agents Chemother, 2009).

Legend:
Format in all cases: functional, organism-based
Plasmodium falciparum [1] = test: Antimalarial activity against chloroquine-sensitive Plasmodium falciparum 3D7 assessed as Plasmodium lactate dehydrogenase release after 48 hrs by colorimetry; details: 3D7, 48 h
Plasmodium falciparum [2] = test: Antimalarial activity against chloroquine-resistant Plasmodium falciparum Dd2 assessed as Plasmodium lactate dehydrogenase release after 48 hrs by colorimetry; details: Dd2, 48 h
Plasmodium falciparum [3] = test: Antimalarial activity against chloroquine-resistant Plasmodium falciparum E8B assessed as Plasmodium lactate dehydrogenase release after 48 hrs by colorimetry

Row | SMILES | IC50 (Plasmodium falciparum [1]) [µM] | IC90 (Plasmodium falciparum [1]) [µM] | IC50 (Plasmodium falciparum [2]) [µM] | IC90 (Plasmodium falciparum [2]) [µM] | IC50 (Plasmodium falciparum [3]) [µM] | IC90 (Plasmodium falciparum [3]) [µM]
1 | CC(C)c1c(C(=O)Nc2ccccc2)c(-c2ccccc2)c(-c2ccc(F)cc2)n1CC[C@@H](O)C[C@@H](O)CC(=O)O [ATORVASTATIN] | 25 | 68 | 17 | 39 | 17 | 39
2 | CC(C)c1nc(N(C)S(C)(=O)=O)nc(-c2ccc(F)cc2)c1/C=C/[C@@H](O)C[C@@H](O)CC(=O)O [ROSUVASTATIN] | 80 | 205 | 80 | 232 | 80 | 232
